# Experimental data: US6974870B2, “Substituted 3-amino-thieno [2,3-b]pyridine-2-carboxylic acid amide compounds and processes for preparing and their uses” (Boehringer Ingelheim Phamaceuticals, Inc., priority 2002, dated 2005)
# Molecular target: T1, human IKKβ (Homo sapiens, UniProt O14920)
# T1 construct: FLAG (N)
# T1 sequence (O14920 1-756): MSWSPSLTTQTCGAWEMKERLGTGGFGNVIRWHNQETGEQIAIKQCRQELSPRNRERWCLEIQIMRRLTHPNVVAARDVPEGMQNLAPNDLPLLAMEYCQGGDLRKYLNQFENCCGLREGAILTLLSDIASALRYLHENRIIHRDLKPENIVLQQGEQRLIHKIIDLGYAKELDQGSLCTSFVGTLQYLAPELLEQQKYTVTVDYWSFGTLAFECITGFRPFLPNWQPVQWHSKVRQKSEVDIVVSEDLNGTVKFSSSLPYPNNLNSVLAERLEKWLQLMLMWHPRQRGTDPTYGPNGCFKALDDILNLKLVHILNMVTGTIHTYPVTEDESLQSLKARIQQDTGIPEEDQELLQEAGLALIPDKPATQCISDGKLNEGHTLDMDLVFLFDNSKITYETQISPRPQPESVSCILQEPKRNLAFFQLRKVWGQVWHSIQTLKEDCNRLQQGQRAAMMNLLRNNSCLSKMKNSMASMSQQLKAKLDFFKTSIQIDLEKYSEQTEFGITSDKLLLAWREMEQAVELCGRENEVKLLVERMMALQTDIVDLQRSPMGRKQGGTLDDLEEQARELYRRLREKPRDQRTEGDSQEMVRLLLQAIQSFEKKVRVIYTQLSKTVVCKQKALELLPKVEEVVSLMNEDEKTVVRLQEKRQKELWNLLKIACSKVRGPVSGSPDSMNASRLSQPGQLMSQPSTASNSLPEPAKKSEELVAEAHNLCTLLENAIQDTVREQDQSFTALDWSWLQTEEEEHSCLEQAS
# Test: IKKβ kinase inhibition assay (phosphorylation of IκBα substrate, 33P-ATP)
# Format: biochemical
# Conditions: flag-tagged human IKKβ 0.9 μg/ml, GST-IκBα (1-54) 53 μg/ml, 250 nM ATP, 1 hour at 25° C.
# Procedure: The inhibition of IKKα and IKKβ by the compounds of the present invention was determined with the following assay that measures the phosphorylation of the IκBα substrate by the respective kinases. The enzymes used in the assay were N-terminally flag-tagged versions of the human IKKβ or IKKα and the substrate was a GST fusion protein with IκBα (amino acids 1-54).
# The reaction mixtures (60 μl) contained 20 mM HEPES pH 7.5, 10 mM MgCl2, 2 mM MnCl2, 100 mM NaCl, 100 μM Na3VO4, 20 mM β-glycerophosphate, 1 mM DTT, 2% DMSO, 250 nM ATP, 0.4 nM [^33P]ATP (specific activity, 3000 Ci/mmol), IκBα substrate, IKK enzyme and test compound. The reaction mixtures contained either 3.6 μg/ml IKKα and 245 μg/ml IκBα or 0.9 μg/ml IKKβ and 53 μg/ml IκBα.
# Reactions were initiated by adding a solution of IκBα substrate and ATP to polypropylene plates containing IKK enzyme that was pre-incubated for 5 minutes with test compound. Then the reaction mixtures were incubated for 1 hour at 25° C., placed on ice and quenched by the addition of 150 μl 10% trichloroacetic acid and 5% disodium pyrophosphate. After mixing, the entire contents of the quenched reaction mixtures were transferred to a pre-wetted Packard UniFilter filtration plate, aspirated and washed 6 times with 250 μl of ddH2O using the Packard Filtermate Harvester. Filtration plates were then air dried, supplemented with 40 μl of Microscint 20 scintillation fluid and the ^33P-labeled reaction products were quantified using the Packard TopCount scintillation counter.
# Compounds were tested in three-fold serial dilutions and inhibitor concentrations to achieve 50% inhibition of enzyme activity (i.e., IC50) were derived from dose-reponse curves using SAS software (SAS Institute, Cary N.C.). A non-linear regression analysis based on the Hill equation was applied to the percent inhibition versus concentration data. In all cases, compound concentrations were verified by HPLC.
row,IC50 [nM],SMILES
1,< 1000,CCCc1cc(N2CCC(NCC(=O)Nc3cnc4ccccc4c3)CC2)nc2sc(C(N)=O)c(N)c12
2,< 1000,"CCCc1cc(N2CCC(NCC(=O)Nc3ccccc3C(N)=O)CC2)nc2sc(C(N)=O)c(N)c12 [3-Amino-6-(4-{[(2-carbamoyl-phenylcarbamoyl)-methyl]-amino}-piperidin-1-yl)-4-propyl-thieno[2,3-b] pyridine-2-carboxylic acid amide]"
3,< 1000,"CCCc1cc(N2CCC(NCC(=O)NCCO)CC2)nc2sc(C(N)=O)c(N)c12 [3-Amino-6-(4-{[(2-hydroxy-ethylcarbamoyl)-methyl]-amino}-piperidin-1-yl)-4-propyl-thieno[2,3-b] pyridine-2-carboxylic acid amide]"
4,< 1000,"CCCc1cc(N2CCC(NCC(=O)Nc3cccc(C(N)=O)c3)CC2)nc2sc(C(N)=O)c(N)c12 [3-Amino-6-(4-{[(3-carbamoyl-phenylcarbamoyl)-methyl]-amino}-piperidin-1-yl)-4-propyl-thieno[2,3-b] pyridine-2-carboxylic acid amide]"
5,< 1000,"CCCc1cc(N2CCC(NCC(=O)NCC(N)=O)CC2)nc2sc(C(N)=O)c(N)c12 [3-Amino-6-(4-{[(carbamoylmethyl-carbamoyl)-methyl]-amino}-piperidin-1-yl)-4-propyl-thieno[2,3-b] pyridine-2-carboxylic acid amide]"
6,< 1000,"CCCc1cc(N2CCC(NCC(O)C(=O)NCc3ccccc3)CC2)nc2sc(C(N)=O)c(N)c12 (stereo not drawn) [3-Amino-6-[4-(2-benzylcarbamoyl-2-hydroxy-ethylamino)-piperidin-1-yl]-4-propyl-thieno[2,3-b] pyridine-2-carboxylic acid amide]"
7,< 1000,"CCCc1cc(N2CCC(NCC(O)C(=O)Nc3ccccc3)CC2)nc2sc(C(N)=O)c(N)c12 (stereo not drawn) [3-Amino-6-[4-(2-hydroxy-2-phenylcarbamoyl-ethylamino)-piperidin-1-yl]-4-propyl-thieno[2,3-b] pyridine-2-carboxylic acid amide]"
8,< 1000,"CCCc1cc(N2CCC(NCC(O)CNc3ccccc3)CC2)nc2sc(C(N)=O)c(N)c12 (stereo not drawn) [3-Amino-6-[4-(2-hydroxy-3-phenylamino-propylamino)-piperidin-1-yl]-4-propyl-thieno[2,3-b] pyridine-2-carboxylic acid amide]"
9,< 1000,"CCCc1cc(N2CCC(NCC(O)CCc3ccccc3)CC2)nc2sc(C(N)=O)c(N)c12 (stereo not drawn) [3-Amino-6-[4-(2-hydroxy-4-phenyl-butylamino)-piperidin-1-yl]-4-propyl-thieno[2,3-b] pyridine-2-carboxylic acid amide]"
10,< 1000,"CCCc1cc(N2CCC(NC[C@@H](O)COc3ccccc3)CC2)nc2sc(C(N)=O)c(N)c12 [3-Amino-6-[4-((R)-2-hydroxy-3-phenoxy-propylamino)-piperidin-1-yl]-4-propyl-thieno[2,3-b] pyridine-2-carboxylic acid amide]"
11,< 1000,"CCCc1cc(N2CCC(NC[C@H](O)COc3ccccc3)CC2)nc2sc(C(N)=O)c(N)c12 [3-Amino-6-[4-((S)-2-hydroxy-3-phenoxy-propylamino)-piperidin-1-yl]-4-propyl-thieno[2,3-b] pyridine-2-carboxylic acid amide]"
12,< 1000,"CCCc1cc(N2CCC(NCC(O)c3cccc(-c4ccccn4)c3)CC2)nc2sc(C(N)=O)c(N)c12 (stereo not drawn) [3-Amino-6-{4-[2-hydroxy-2-(3-pyridin-2-yl-phenyl)-ethylamino]-piperidin-1-yl}-4-propyl-thieno[2,3-b] pyridine-2-carboxylic acid amide]"
13,< 1000,"CCCc1cc(N2CCC(NCC(O)c3ccc(-c4ccccn4)cc3)CC2)nc2sc(C(N)=O)c(N)c12 (stereo not drawn) [3-Amino-6-{4-[2-hydroxy-2-(4-pyridin-2-yl-phenyl)-ethylamino]-piperidin-1-yl}-4-propyl-thieno[2,3-b] pyridine-2-carboxylic acid amide]"

# The next lines start with the molecule.
row,SMILES,IC50 [nM]
1,"CC(C)(C)c1cc(N2CCC(N)CC2)nc2sc(C(N)=O)c(N)c12 [3-Amino-6-(4-amino-piperidin-1-yl)-4-tert-butyl-thieno[2,3-b] pyridine-2-carboxylic acid amide]",< 1000
2,"CCCc1cc(N2CCC(NCC(O)c3ccc(-c4ccccc4)cc3)CC2)nc2sc(C(N)=O)c(N)c12 (stereo not drawn) [3-Amino-6-[4-(2-biphenyl-4-yl-2-hydroxy-ethylamino)-piperidin-1-yl]-4-propyl-thieno[2,3-b] pyridine-2-carboxylic acid amide]",< 1000
3,"NC(=O)c1sc2nc(N3CCC(NCC(O)c4ccc(-c5ccccc5)cc4)CC3)cc(C(F)(F)F)c2c1N (stereo not drawn) [3-Amino-6-[4-(2-biphenyl-4-yl-2-hydroxy-ethylamino)-piperidin-1-yl]-4-trifluoromethyl-thieno[2,3-b]pyridine-2-carboxylic acid amide]",< 1000
4,"NC(=O)c1sc2nc(N3CCC(NCCO)CC3)cc(C(F)(F)F)c2c1N [3-Amino-6-[4-(2-hydroxy-ethylamino)-piperidin-1-yl]-4-trifluoromethyl-thieno[2,3-b]pyridine-2-carboxylic acid amide]",< 1000
5,"CCCc1cc(N2CCC(NCC(O)COCc3ccccc3)CC2)nc2sc(C(N)=O)c(N)c12 (stereo not drawn) [3-Amino-6-[4-(3-benzyloxy-2-hydroxy-propylamino)-piperidin-1-yl]-4-propyl-thieno[2,3-b] pyridine-2-carboxylic acid amide]",< 1000
6,"CCCc1cc(N2CCC(NCCc3ccc(C(N)=O)cc3)CC2)nc2sc(C(N)=O)c(N)c12 [3-Amino-6-{4-[2-(4-carbamoyl-phenyl)-ethylamino]-piperidin-1-yl}-4-propyl-thieno[2,3-b] pyridine-2-carboxylic acid amide]",< 1000
7,"CCCc1cc(N2CCC(NCC(O)c3ccc(-c4cnccn4)cc3)CC2)nc2sc(C(N)=O)c(N)c12 (stereo not drawn) [3-Amino-6-{4-[2-hydroxy-2-(4-pyrazin-2-yl-phenyl)-ethylamino]-piperidin-1-yl}-4-propyl-thieno[2,3-b] pyridine-2-carboxylic acid amide]",< 1000
8,"NC(=O)c1sc2nc(N3CCC(NCC(O)c4ccc(-c5ccccn5)cc4)CC3)cc(C(F)(F)F)c2c1N (stereo not drawn) [3-Amino-6-{4-[2-hydroxy-2-(4-pyridin-2-yl-phenyl)-ethylamino]-piperidin-1-yl}-4-trifluoromethyl-thieno[2,3-b]pyridine-2-carboxylic acid amide]",< 1000
9,"NC(=O)c1sc2nc(N3CCC(NCC(O)c4ccc(-c5cccnc5)cc4)CC3)cc(C(F)(F)F)c2c1N (stereo not drawn) [3-Amino-6-{4-[2-hydroxy-2-(4-pyridin-3-yl-phenyl)-ethylamino]-piperidin-1-yl}-4-trifluoromethyl-thieno[2,3-b]pyridine-2-carboxylic acid amide]",< 1000
10,"CCCc1cc(N2CCC(NCC(O)c3ccc(-c4ccncc4)cc3)CC2)nc2sc(C(N)=O)c(N)c12 (stereo not drawn) [3-Amino-6-{4-[2-hydroxy-2-(4-pyridin-4-yl-phenyl)-ethylamino]-piperidin-1-yl}-4-propyl-thieno[2,3-b] pyridine-2-carboxylic acid amide]",< 1000
11,"NC(=O)c1sc2nc(N3CCC(NCC(O)c4ccc(-c5ccncc5)cc4)CC3)cc(C(F)(F)F)c2c1N (stereo not drawn) [3-Amino-6-{4-[2-hydroxy-2-(4-pyridin-4-yl-phenyl)-ethylamino]-piperidin-1-yl}-4-trifluoromethyl-thieno[2,3-b]pyridine-2-carboxylic acid amide]",< 1000
